Values of other authors in patent US12076400B2, “Methods of using a bispecific antigen-binding construct targeting HER2 in combination with CDK4/6 inhibitors for the treatment of breast cancer” (c/o Zymeworks BC Inc., priority 2019, dated 2024).

Test system: estrogen receptor (ER)-positive breast cancer cell lines
Conditions: by blocking progression from G1 into S phase

SMILES: CC(=O)c1c(C)c2cnc(Nc3ccc(N4CCNCC4)cn3)nc2n(C2CCCC2)c1=O [palbociclib, Palbociclib]
- Cellular proliferation in vitro: reduced cellular proliferation
